Biological target: T1, Solute carrier organic anion transporter family member 1A4 (Rattus norvegicus, UniProt O35913)
T1 sequence (O35913 whole entry): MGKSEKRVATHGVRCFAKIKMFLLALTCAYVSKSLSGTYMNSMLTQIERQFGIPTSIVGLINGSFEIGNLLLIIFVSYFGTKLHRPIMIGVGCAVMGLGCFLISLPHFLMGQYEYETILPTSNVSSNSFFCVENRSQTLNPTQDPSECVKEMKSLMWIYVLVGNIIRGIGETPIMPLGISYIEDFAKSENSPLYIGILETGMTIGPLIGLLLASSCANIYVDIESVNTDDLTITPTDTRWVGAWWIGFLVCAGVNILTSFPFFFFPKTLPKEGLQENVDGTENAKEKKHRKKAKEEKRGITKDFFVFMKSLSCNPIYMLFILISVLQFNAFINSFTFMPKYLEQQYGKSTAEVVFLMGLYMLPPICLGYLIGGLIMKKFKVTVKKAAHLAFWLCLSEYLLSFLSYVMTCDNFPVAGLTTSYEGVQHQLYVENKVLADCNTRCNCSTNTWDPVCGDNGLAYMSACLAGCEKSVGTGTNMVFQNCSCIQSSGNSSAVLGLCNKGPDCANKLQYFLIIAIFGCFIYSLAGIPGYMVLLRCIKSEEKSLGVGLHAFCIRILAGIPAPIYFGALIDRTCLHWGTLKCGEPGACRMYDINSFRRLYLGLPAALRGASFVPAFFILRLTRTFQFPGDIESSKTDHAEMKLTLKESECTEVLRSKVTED
Test: TP_TRANSPORTER: Western blot
Assay type: functional

Cc1ccc2cc3c(ccc4ccccc43)c3c2c1CC3 [3-METHYLCHOLANTHRENE]
Activity: inducer [Decrease]
